Measurements from patent publication US8017809B2, “Bisboron compound” (Japan Science and Technology Agency, priority 2005, dated 2011).
Where two headings read alike, the source gives them in different places.

System: capacitative calcium entry (CCE) in IP3 receptor-deficient strain of cell line DT40
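Note: intracellular Ca2+ read as 340/380 nm excitation ratio at 510 nm emission, stores emptied by thapsigargin without external Ca2+, then 2 mM CaCl2 added, inhibition of the ensuing Ca2+ rise.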

Method: (Assay of Capacitative Calcium Entry Inhibition)
Its 510 nm fluorescence obtained at 340 nm and 380 nm is measured and the fluorescence ratio F340/380 is measured to determine the intracellular calcium ion concentration. Next, thapsigargin (an endoplasmic reticulum calcium ion pump inhibitor) is allowed to act without calcium ion in an extracellular fluid to deplete an intracellular calcium store. Calcium chloride at a final concentration of 2 mM is added to the extracellular fluid. The IC50 value is calculated by estimating the effect of each compound on the degree of increase in the intracellular calcium concentration at the time of the addition.

Work on `Cc1ccc(B(O)c2ccc(COCc3ccc(B(O)c4ccc(C)c(Cl)c4)cc3)cc2)cc1Cl` [Example 90, Bis(4,4′-(3-chloro-4-methylphenyl-hydroxyboryl)benzyl) ether] yielded an inhibition (1 µM) of 20% and an inhibition (3 µM) of 100%.

For `OB(c1ccccc1)c1ccc(Oc2ccc(B(O)c3ccccc3)cc2)cc1` [Example 1, Bis(4,4′-(phenylhydroxyboryl)phenyl) ether], the inhibition (3 µM) was 50%.

In the case of `c1ccc(B(OCc2ccccn2)c2ccc(COc3ccc(B(OCc4ccccn4)c4ccccc4)cc3)cc2)cc1` [Example 111, (4-Phenyl-2-pyridylmethoxyborylphenyl) (4′-phenyl-2-pyridylmethoxyborylbenzyl) ether], the inhibition (1 µM) is reported as 20% and the inhibition (3 µM) is reported as 100%.

`NC(COB(c1ccccc1)c1ccc(COCc2ccc(B(OCC(N)c3ccccc3)c3ccccc3)cc2)cc1)c1ccccc1` (centres unmarked) [Example 164, Bis(4,4′-(phenyl-2-phenyl-2-amino-ethoxyboryl)benzyl) ether] was tested, and the inhibition (3 µM) was 100% and the inhibition (10 µM) was 100%.

`OB(c1ccccc1)c1cccc(COCc2cccc(B(O)c3ccccc3)c2)c1` [Example 4] showed an inhibition (0.1 µM) of 70%, an inhibition (0.3 µM) of 95% and an inhibition (1 µM) of 100%.

In the case of `OB(c1ccc(COc2ccc(B(O)c3ccc(C(F)(F)F)cc3)cc2)cc1)c1ccc(C(F)(F)F)cc1` [Example 54, (4-Trifluoromethylphenylhydroxyborylphenyl) (4′-trifluoromethylphenylhydroxyborylbenzyl) ether], the inhibition (1 µM) is reported as 60% and the inhibition (3 µM) is reported as 100%.

`CN(C)CCOB(c1ccccc1)c1ccc(COc2ccc(B(OCCN(C)C)c3ccccc3)cc2)cc1` [Example 110, (4-Phenyl-N,N-dimethylaminoethoxyborylphenyl) 4′-(N,N-dimethylaminoethoxyborylbenzyl) ether] was tested, and the inhibition (1 µM) was 20% and the inhibition (3 µM) was 100%.

In the case of `OB(c1ccccc1)c1ccc(COc2ccc(B(O)c3ccccc3)cc2)cc1` [Example 51, (4-Phenylhydroxyborylphenyl) (4′-phenylhydroxyborylbenzyl) ether], the inhibition (1 µM) is reported as 20% and the inhibition (3 µM) is reported as 100%.

“Bis(4,4′-(phenyl-ornithineboryl)phenyl) ether [Example 117]” gave an inhibition (1 µM) of 80% and an inhibition (3 µM) of 100%.

Compound `NCCOB(c1ccccc1)c1ccc(COc2ccc(B(OCCN)c3ccccc3)cc2)cc1` [Example 52, (4-Phenylaminoethoxyborylphenyl) (4′-phenylaminoethoxyborylbenzyl) ether] has an inhibition (3 µM) of 100%.

`NCCOB(c1ccccc1)c1cccc(COCc2cccc(B(OCCN)c3ccccc3)c2)c1` [Example 5, Bis(3,3′-(phenylaminoethoxyboryl)benzyl) ether] gave an inhibition (0.03 µM) of 30%, an inhibition (0.1 µM) of 95% and an inhibition (0.3 µM) of 100%.

For `CNCCOB(c1ccc(COc2ccc(B(OCCNC)c3ccc(C(F)(F)F)cc3)cc2)cc1)c1ccc(C(F)(F)F)cc1` [Example 84, (4′-Trifluoromethylphenyl-N-methylaminoethoxyboryl)-4-phenyl (4′-trifluoromethylphenyl-N-methylaminoethoxyboryl)-4-benzyl ether], the inhibition (1 µM) was 50% and the inhibition (3 µM) was 100%.

In the case of `CNCCOB(c1ccc(COCc2ccc(B(OCCNC)c3ccc(OC)cc3)cc2)cc1)c1ccc(OC)cc1` [Example 95, Bis(4,4′-(p-methoxyphenyl-N-methylaminoethoxyboryl)benzyl) ether], the inhibition (1 µM) is reported as 80% and the inhibition (3 µM) is reported as 80%.

`c1ccc(B(OCc2ccccn2)c2ccc(COCc3ccc(B(OCc4ccccn4)c4ccccc4)cc3)cc2)cc1` [Example 88, Bis(4,4′-(phenyl-2-pyridylmethoxyboryl)benzyl) ether] gave an inhibition (1 µM) of 95% and an inhibition (3 µM) of 100%.

With `Cc1ccc(B(OCC2CCCCN2)c2ccc(COCc3ccc(B(OCC4CCCCN4)c4ccc(C)c(Cl)c4)cc3)cc2)cc1Cl` (centres unmarked) [Example 105, Bis(4,4′-(3-chloro-4-methylphenyl-2-piperidylmethyloxyboryl)benzyl) ether] the inhibition (1 µM) was 30% and the inhibition (3 µM) was 100%.

`CN(C)CCOB(c1ccc(COCc2ccc(B(OCCN(C)C)c3ccc(C(F)(F)F)cc3)cc2)cc1)c1ccc(C(F)(F)F)cc1` [Example 106, Bis(4,4′-(p-trifluoromethylphenyl-N,N-dimethylaminoethoxyboryl)benzyl) ether] was tested, and the inhibition (1 µM) was 30% and the inhibition (3 µM) was 100%.

Work on `CNCCOB(c1ccc(COCc2ccc(B(OCCNC)c3ccc(C)c(Cl)c3)cc2)cc1)c1ccc(C)c(Cl)c1` [Example 103, Bis(4,4′-(3-chloro-4-methylphenyl-N-methylaminoethoxyboryl)benzyl) ether] yielded an inhibition (1 µM) of 30% and an inhibition (3 µM) of 80%.

`OB(c1ccccc1)c1ccc(COCc2ccccc2B(O)c2ccccc2)cc1` [Example 12, (2-(Phenylhydroxyboryl)benzyl) (4-(phenylhydroxyboryl)benzyl) ether] was tested, and the inhibition (0.3 µM) was 10%, the inhibition (1 µM) was 80% and the inhibition (3 µM) was 100%.

`NCCOB(c1ccccc1)c1cccc(COCc2ccccc2B(OCCN)c2ccccc2)c1` [Example 15, (2-(Phenylaminoethoxyboryl)benzyl) (3-(phenylaminoethoxyboryl)benzyl) ether] showed an inhibition (0.3 µM) of 100%, an inhibition (1 µM) of 100% and an inhibition (3 µM) of 100%.

`Cc1ccc(B(OCCN(C)C)c2ccc(COCc3ccc(B(OCCN(C)C)c4ccc(C)c(Cl)c4)cc3)cc2)cc1Cl` [Example 104, Bis(4,4′-(3-chloro-4-methylphenyl-N,N-dimethylaminoethoxyboryl)benzyl) ether] showed an inhibition (1 µM) of 20% and an inhibition (3 µM) of 100%.

In the case of `CC(C)(C)c1cc(B(OCCN)c2ccccc2)c2c(c1)C(C)(C)c1cc(C(C)(C)C)cc(B(OCCN)c3ccccc3)c1O2` [Example 60, 4,5-Di(phenylaminoethoxyboryl)-2,7-di-t-butyl-9,9-dimethylxanthrene], the inhibition (1 µM) is reported as 20% and the inhibition (3 µM) is reported as 100%.

For `CNCCOB(c1ccccc1)c1ccc(Oc2ccc(B(OCCNC)c3ccccc3)cc2)cc1` [Example 68, Bis(4,4′-(phenyl-N-methylaminoethoxyboryl)phenyl) ether], the inhibition (0.3 µM) was 20% and the inhibition (1 µM) was 80%.

Work on `CNCCOB(c1ccccc1)c1ccc(COc2ccc(B(OCCNC)c3ccccc3)cc2)cc1` [Example 109, (4-Phenyl-N-methylaminoethoxyborylphenyl) 4′-(N-methylaminoethoxyborylbenzyl) ether] yielded an inhibition (1 µM) of 80% and an inhibition (3 µM) of 100%.

In the case of `Cc1ccc(B(OCCN)c2ccc(-c3ccc(B(OCCN)c4ccc(C)cc4)cc3)cc2)cc1` [Example 45, 4,4′-(4-Methylphenylaminoethoxyboryl)diphenyl], the inhibition (1 µM) is reported as 20% and the inhibition (3 µM) is reported as 100%.

`c1ccc(B(OCC2CCCN2)c2ccc(COCc3ccc(B(OCC4CCCN4)c4ccccc4)cc3)cc2)cc1` (centres unmarked) [Example 134, Bis(4,4′-(phenyl-2-pyrrolidinemethoxyboryl)benzyl) ether] was tested, and the inhibition (1 µM) was 20% and the inhibition (3 µM) was 100%.

`CCCCNCCOB(c1ccccc1)c1ccc(COCc2ccc(B(OCCNCCCC)c3ccccc3)cc2)cc1` [Example 136, Bis(4,4′-(phenyl-butylaminoethoxyboryl)benzyl) ether] was tested, and the inhibition (1 µM) was 30% and the inhibition (3 µM) was 100%.

`NCCOB(c1ccc(COc2ccc(B(OCCN)c3ccc(C(F)(F)F)cc3)cc2)cc1)c1ccc(C(F)(F)F)cc1` [Example 55] showed an inhibition (0.3 µM) of 0%, an inhibition (1 µM) of 20% and an inhibition (3 µM) of 100%.

Compound `c1ccc(B(OCc2ccccn2)c2ccc(Oc3ccc(B(OCc4ccccn4)c4ccccc4)cc3)cc2)cc1` [Example 160, Bis(4,4′-(phenyl-2-pyridylmethoxyboryl)phenyl) ether] has an inhibition (3 µM) of 0% and an inhibition (10 µM) of 100%.
